Assay results published in patent US12643867B2, “Compositions and uses thereof” (University of Virginia Patent Foundation, priority 2017, dated 2026).

What was measured:
Format in all cases: binding
[1] = molecular target: T1, recombinant DGKα (Rattus norvegicus, UniProt P51556); assay: Gel-based ATP acyl phosphate chemical proteomic assay; conditions: compounds 100 μM (ATP 1 mM; RF001 at indicated concentrations), 30 min; probe 10 μM
T1 construct: expressed in transfected cells; host or cells: HEK293T (SILAC HEK293T for LC-MS)
T1 sequence (P51556 whole entry): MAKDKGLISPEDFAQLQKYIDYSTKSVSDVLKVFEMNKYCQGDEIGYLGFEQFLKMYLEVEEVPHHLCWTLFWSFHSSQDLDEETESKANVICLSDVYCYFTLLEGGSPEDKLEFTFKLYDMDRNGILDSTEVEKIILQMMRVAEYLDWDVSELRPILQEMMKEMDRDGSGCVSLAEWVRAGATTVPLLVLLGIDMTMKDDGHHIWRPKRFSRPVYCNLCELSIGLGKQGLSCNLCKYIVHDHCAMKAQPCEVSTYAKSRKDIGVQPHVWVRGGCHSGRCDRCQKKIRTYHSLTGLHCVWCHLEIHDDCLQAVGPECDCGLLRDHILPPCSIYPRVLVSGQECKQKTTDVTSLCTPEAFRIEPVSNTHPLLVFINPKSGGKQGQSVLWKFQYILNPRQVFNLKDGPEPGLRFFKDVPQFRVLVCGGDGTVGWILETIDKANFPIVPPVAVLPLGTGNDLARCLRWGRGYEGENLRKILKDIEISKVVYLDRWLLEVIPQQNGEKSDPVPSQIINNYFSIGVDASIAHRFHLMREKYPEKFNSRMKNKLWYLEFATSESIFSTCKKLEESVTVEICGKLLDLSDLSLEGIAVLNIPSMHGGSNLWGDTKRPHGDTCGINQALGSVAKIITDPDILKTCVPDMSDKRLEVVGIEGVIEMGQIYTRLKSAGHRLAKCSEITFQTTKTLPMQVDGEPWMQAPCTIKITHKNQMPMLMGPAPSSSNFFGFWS
Description: Cell pellets were resuspended in kinase buffer (Dulbecco's PBS (DPBS, Hyclone), 20 mM MgCl2, EDTA-free protease inhibitors (Pierce)) and then lysed by sonication (3×1 sec pulse, 20% amplitude). The cell lysates were then subjected to centrifugation (100,000×g, 45 min at 4° C.) to isolate the cytosolic fraction in the supernatant and the membrane fraction as a pellet. The membrane pellet was resuspended in kinase buffer by sonication. […] The only exception was experiments involving DGKE; recombinant DGKE protein was most prominently expressed in the membrane fraction and so this fraction was utilized to study DGKE enzyme (see FIG. 8). Protein concentrations were measured using the Bio-Rad DC protein assay. Samples were stored at −80° C. until use.
Proteome concentration was adjusted to 2 mg/mL in kinase buffer. Proteomes were first pre-treated with compound (0.6 μL, 50× stock in DMSO) mixed with gentle flicking, and incubated for 30 min at 25° C. in a microfuge tube (30 μL reaction volume). […] Reactions were then quenched with 10 AL of 4×SDS-PAGE loading buffer. Protein samples (15 μL) were loaded onto 4-20% TGX Stain-Free Protein Midi Gel and resolved by SDS-PAGE at 150V for 55 min. Proteins were then transferred to a nitrocellulose blot by Bio-Rad Trans-Blot Turbo Transfer System (25V. 10 min) to enhance sensitivity. The nitrocellulose blot was then incubated in blocking solution (30 mL, 3% BSA in TBS-T) for 1 h at 25° C. with gentle shaking. The blot was then transferred immediately to antibody solution (30 mL, 5% BSA in ddH2O with 0.1% Tween20 and 1:3000 Streptavidin DyLight 550) and incubated for 2 h at 25° C. with gentle shaking. The blot was then rinsed 5 times for 5 min in TBS-T. and then transferred into ddH2O. The blot was then imaged by in-blot fluorescence scanning on a ChemiDoc MP Imaging System. Fluorescence intensity signals were normalized to total lane protein using the Bio-rad Stain Free imaging (Posch et al., 2013).
The percentage of enzyme activity remaining was determined by comparing integrated band intensities or luminescence of inhibitor—with DMSO-treated samples for gel-based chemical proteomic or ADP-glo assays, respectively. For both chemical proteomic and ADP-glo methods, nonlinear regression analysis was used to determine the IC50 values from a dose-response curve generated using GraphPad Prism. Data are shown as mean±s.e.m. Determination of significance was performed by one-way ANOVA. All statistical analyses were performed using GraphPad Prism.

[2] = molecular target: T2, DGKA (Diacylglycerol kinase alpha) (Rattus norvegicus, UniProt P51556); assay: SILAC LC-MS ATP acyl phosphate probe competition, recombinant DGK-HEK293T lysates
T2 construct: expressed in transfected cells; host or cells: HEK293T (SILAC HEK293T for LC-MS)
T2 sequence (P51556 whole entry): as above
Description: All other vectors were gifted to Dr. Kevin Lynch (University of Virginia, School of Medicine) by Dr. Kaoru Goto (Yamagata University, School of Medicine) and Dr. Fumio Sakane (Chiba University) and were kindly shared with us: pcDNA3-FLAG-DGKA (rat), pCMV-Tag2B-FLAG-DGKQ (human), pcDNA3-DGKE-3×Flag (human), and pCMV-SPORT6-HA-DGKZ (human). HEK293T cells were plated at a concentration of 400,000 cells in complete DMEM and grown to 50-60% confluency. A polyethyleneimine (PEI) stock solution was prepared (1 mg/mL, pH 7.4) and filter sterilized. Serum-free DMEM (600 μL) was mixed gently with 2.6 μg DNA and 20 μL of sterile PEI (1 mg/mL, pH 7.4) in a sterile microfuge tube. Mixtures were incubated for 30 min at 25° C. The mixture was then added drop-wise to each 10 cm^2 plate, rocked back and forth to mix, and placed back in the incubator. Cell pellets were harvested after two full days of growth, snap-frozen in liquid N2, and stored at −80° C. until use. Recombinant proteins were produced by transient transfection in SILAC HEK293T cells using the procedure described above, except that cells were plated at a concentration of 1×10^6 cells per 10 cm^2 plate and grown to ˜70% confluency prior to introducing transfection mixture.
Proteomes were diluted to 2 mg/ml in kinase buffer. The light and heavy proteomes (0.5 mg, 250 μL total reaction volume) were pre-treated with vehicle or compound, respectively (5 μL, DMSO (light) or 50× stock in DMSO (heavy)), mixed gently, and incubated at 25° C. for 30 min. […] After incubation, matched light and heavy proteomes were transferred and mixed in a 1:1 ratio in a two-dram vial containing 4:1:3 MeOH/CHCl3/H2O (2 mL MeOH, 500 AL CHCl3, 1.5 mL H2O) for extraction of proteins to remove excess probe, quickly vortexed, and centrifuged at 1,400×g for 3 min to pellet protein. Organic and aqueous layers were removed using a Pasteur pipette, and the protein pellet was transferred to a screw-top tube in 600 μL MeOH. A second extraction was performed by adding CHCl3 (150 μL) and H2O (600 μL) to each sample, vortexed, and centrifuged at 1,400×g for 3 min to pellet protein. Organic and aqueous layers were removed by pipetting. MeOH added to pellet (600 μL) and pellets were re-suspended by sonication (3×1 sec pulse, 20% amplitude) for a final extraction. Samples were then centrifuged at 17,000×g for 5 min to pellet protein and MeOH was removed by pipetting. […] To desalt the samples, each was transferred to a two-dram glass vial, and to the vial 4:1:2 MeOH/CHCl3/H2O (2 mL MeOH, 500 AL CHCl3, 1 mL H2O) was added. The vials were vortexed quickly, spun at 1.400×g for 3 min to pellet protein, and aqueous and organic layers were removed using a Pasteur pipette. The resulting protein pellet was transferred to a screw-top tube in 600 μL MeOH, and then CHCl3 (150 μL) and HO (600 μL) were added to extract protein a second time. The samples were vortexed quickly, centrifuged at 1,400×g to pellet protein, and the aqueous and organic layers were removed by pipetting. Resulting protein pellet was suspended in MeOH (600 μL) via sonication (3×1 sec pulse, 20% amplitude), centrifuged at 17,000×g for 5 min to pellet protein, and MeOH removed by pipetting. Protein pellets were then re-suspended in 25 mM ammonium bicarbonate (500 μL) and digested with 7.5 μg Trypsin/Lys-C(Promega, 15 μL, 0.5 μg/μL) for 3 h at 37° C. Avidin-agarose beads (Thermo Scientific Pierce, 100 AL aliquot per sample) were washed three times by adding 10 mL DPBS, centrifuged at 1,400×g for 1 min, and decanting. This wash step was repeated for a total of 3 times. Digested protein samples were mixed with washed avidin beads (100 μL) and brought to a volume of 5.5 mL with DPBS in a 15 mL conical and rotated for 1 h to enrich samples for the covalent desthiobiotin modification. The beads were washed with 25 mM ammonium bicarbonate (3× with 10 mL, centrifuge at 1,400×g for 3 min, decant) and then H2O (3× with 10 mL, centrifuge at 1,400×g for 3 min, decant).

[3] = molecular target: T3, hDGKa C1 domain cysteines (Homo sapiens, UniProt P23743); assay: JWB003 labeling competition in vitro
T3 construct: expressed in transfected cells; host or cells: HEK293T
T3 sequence (P23743 whole entry, the tested form may be a part): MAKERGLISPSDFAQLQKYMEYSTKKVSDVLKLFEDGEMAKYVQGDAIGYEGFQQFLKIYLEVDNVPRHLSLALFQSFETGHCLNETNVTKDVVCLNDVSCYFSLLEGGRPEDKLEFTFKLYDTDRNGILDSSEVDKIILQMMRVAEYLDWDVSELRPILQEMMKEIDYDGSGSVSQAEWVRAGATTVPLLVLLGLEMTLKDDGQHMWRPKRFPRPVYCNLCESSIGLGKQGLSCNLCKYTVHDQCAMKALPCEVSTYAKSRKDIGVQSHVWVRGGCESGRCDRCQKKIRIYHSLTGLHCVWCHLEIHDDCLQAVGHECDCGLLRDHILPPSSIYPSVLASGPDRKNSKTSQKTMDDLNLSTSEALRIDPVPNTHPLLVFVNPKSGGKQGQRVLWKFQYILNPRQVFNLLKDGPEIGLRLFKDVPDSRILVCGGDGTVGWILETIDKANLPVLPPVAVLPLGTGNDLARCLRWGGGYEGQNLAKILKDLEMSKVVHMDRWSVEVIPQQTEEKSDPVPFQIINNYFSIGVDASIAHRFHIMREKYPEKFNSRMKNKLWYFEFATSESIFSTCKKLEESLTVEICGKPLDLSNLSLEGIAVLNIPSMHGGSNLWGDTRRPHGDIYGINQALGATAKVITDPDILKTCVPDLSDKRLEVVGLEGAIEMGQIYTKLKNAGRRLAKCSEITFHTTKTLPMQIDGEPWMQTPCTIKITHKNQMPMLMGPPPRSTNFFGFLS
Description: • 1. HEK293T cells were harvested in cold PBS. • a. Cells were transferred to Eppendorf tube. • 2. Cells were lysed via tip sonicator. • 3. Cells were fractionated into membrane and soluble fraction. • a. 100,000×G for 45 minutes at 4 degree. • b. Supernatant was separated from cell pellet. • 4. Dilute proteomes to 1 mg/mL in PBS and aliquot appropriate reaction volume (49 μL for probe only; 48 μL for competition+probe) • 5. Cells were treated with 50× inhibitor. • a. Incubated for 1Hr at 37 degree. • 6. Cells were treated with 50× Probe (JWB003). • a. Incubated for 1Hr at 37 degree. • 7. Add 6 μL of master mix to each alkyne probe-labeled sample. • a. 1 μL of 1.25 mM Rh-N3 • b. 1 μL of fresh 50 mM TCEP • c. 3 μL of 1.7 mM TBTA stock • d. 1 μL of 50 mM CuSO4 • 8. Vortex samples. • 9. Incubate at room temperature for 1 hr • 10. Quench with 17 μL of 4×SDS-PAGE loading buffer+βME and vortex tubes. • 11. Analyze 30 μL samples by SDS-PAGE immediately. [B] Labeling HEK293T Cells to Determine Target Proteins of JWB003 in Live Cells (In Situ) • 1. Complete media was removed from HEK293T cells and replaced with serum free media containing JWB003 at the appropriate final concentration • a. Cells were placed in incubator for appropriate time at 37 degree 5% CO2 • 2. Cells were washed • a. 2× warm PBS • b. 2× cold PBS • c. Harvest cells in cold PBS • 3. Cells were transferred to Eppendorf tube • 4. Cells were lysed via tip sonicator • 5. Cells were fractionated into membrane and soluble fraction • a. 100,000×G for 45 minutes at 4 degrees • b. Supernatant was separated from cell pellet. • 6. Dilute proteomes to 1 mg/mL and aliquot appropriate reaction volume (50 μL) • 7. Add 6 μL of master mix to each alkyne probe-labeled sample. • a. 1 μL of 1.25 mM Rh-N3 • b. 1 μL of fresh 50 mM TCEP • c. 3 μL of 1.7 mM TBTA stock • d. 1 μL of 50 mM CuSO4 • 8. Vortex samples. • 9. Incubate at room temperature for 1 hr. • 10. Quench with 17 μL of 4×SDS-PAGE loading buffer+βME and vortex tubes. • 11. Analyze 30 μL samples by SDS-PAGE immediately. [C] […]

competition at probe-modified peptides from DAGKc and DAGKa subdomains of DGKα ([2]; ATP 1 mM) [%]	inhibition at 1000 µM ([2]; read-out: inhibition of probe labeling at DGKα C1 site (K237)) [%]	SMILES	blockade of DGKα ATP probe labeling [1]	inhibition of JWB003 probe labeling of hDGKa [3]
~94	~58	Nc1ncnc2c1ncn2[C@@H]1O[C@H](COP(=O)(O)OP(=O)(O)OP(=O)(O)O)[C@@H](O)[C@H]1O [ATP, adenosine triphosphate]	global reductions in fluorescent protein signals	
		CCCCCCCCCCCCCC(=O)O[C@@H]1[C@@H](C)[C@@]2(O)[C@@H](C=C(CO)C[C@]3(O)C(=O)C(C)=C[C@@H]23)[C@@H]2C(C)(C)[C@]12OC(C)=O [PMA]		Probe labeling is inhibited
		NC(=O)CI [iodoacetamide]		labeling is inhibited
